In US20250304623A1, “PEPTIDES FOR INTRACELLULAR DELIVERY” (UNIVERSIDADE DE SANTIAGO DE COMPOSTELA, priority 2022, published 2025):
*: point of attachment. NHNH2 = NN*

Key:
Type in all cases: cell-based
[1] = system: A549 cells; experiment: EGFP mRNA delivery, robotic library screening, A549
Summary of the method: (§1)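 Transfection used amphiphile at final 2.5, 5 or 10 μM with EGFP mRNA (25 ng/well) for 4 h without serum, then medium with 10% FBS. Plate-reader EGFP signal at 72 h, untreated background removed, mean of triplicates.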

[2] = system: ARPE19 cells; experiment: EGFP mRNA delivery, robotic library screening, ARPE19
Summary of the method: as §1

[3] = system: HCT116 cells; experiment: EGFP mRNA delivery, robotic library screening, HCT116
Summary of the method: as §1

[4] = system: Hek293 cells; experiment: EGFP mRNA delivery, robotic library screening, Hek293
Summary of the method: as §1

[5] = system: ARPE19 cells expressing EGFP; experiment: EGFP-targeting siRNA delivery (GFP silencing vs siMOCK), ARPE19
Summary of the method: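 This siRNA delivery assay used stably EGFP-expressing cells seeded a day ahead in 96-well plates. siGFP and amphiphile were combined in DMEM at a constant 30 nM siRNA, incubated 30 min at room temperature, then applied for 4 h before switching to fresh DMEM with 10% FBS. After 72 h, a plate reader measured fluorescence decrease relative to non-targeting siMOCK, subtracting untreated background.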

Ac-RK*LRRK*L-NH2 (Ac-RK(NHNH2)LRRK(NHNH2)L-NH2; not fully specified; printed as Ac-RK*LRRK*L-NH2; also: K*2,K*6: native or modified lysine (ε-amide to a linker)) [Peptide 7.2]
mean fluorescence intensity (EGFP mRNA) ([1]; Dodecanal, 2.5 μM): 428
mean fluorescence intensity (EGFP mRNA) ([1]; Dodecanal, 5 μM): −205
mean fluorescence intensity (EGFP mRNA) ([1]; Dodecanal, 10 μM): −3
mean fluorescence intensity (EGFP mRNA) ([1]; Myristoleyl, 2.5 μM): 1101
mean fluorescence intensity (EGFP mRNA) ([1]; Myristoleyl, 5 μM): 231
mean fluorescence intensity (EGFP mRNA) ([1]; Myristoleyl, 10 μM): 123
mean fluorescence intensity (EGFP mRNA) ([2]; Dodecanal, 2.5 μM): 898
mean fluorescence intensity (EGFP mRNA) ([2]; Dodecanal, 5 μM): 436
mean fluorescence intensity (EGFP mRNA) ([2]; Dodecanal, 10 μM): 1046
mean fluorescence intensity (EGFP mRNA) ([2]; Myristoleyl, 2.5 μM): 2289
mean fluorescence intensity (EGFP mRNA) ([2]; Myristoleyl, 5 μM): 1119
mean fluorescence intensity (EGFP mRNA) ([2]; Myristoleyl, 10 μM): 1131
mean fluorescence intensity (EGFP mRNA) ([3]; Dodecanal, 2.5 μM): 613
mean fluorescence intensity (EGFP mRNA) ([3]; Dodecanal, 5 μM): 672
mean fluorescence intensity (EGFP mRNA) ([3]; Dodecanal, 10 μM): 1077
mean fluorescence intensity (EGFP mRNA) ([3]; Myristoleyl, 2.5 μM): 4952
mean fluorescence intensity (EGFP mRNA) ([3]; Myristoleyl, 5 μM): 1710
mean fluorescence intensity (EGFP mRNA) ([4]; Dodecanal, 2.5 μM): 251
mean fluorescence intensity (EGFP mRNA) ([4]; Dodecanal, 5 μM): 71
mean fluorescence intensity (EGFP mRNA) ([4]; Dodecanal, 10 μM): 648
mean fluorescence intensity (EGFP mRNA) ([4]; Myristoleyl, 2.5 μM): 2550
mean fluorescence intensity (EGFP mRNA) ([4]; Myristoleyl, 5 μM): 1729
mean fluorescence intensity (EGFP mRNA) ([4]; Myristoleyl, 10 μM): 591
percentage of GFP-silencing relative to siMOCK ([5]; Dodecanal, 5 μM): 4%
percentage of GFP-silencing relative to siMOCK ([5]; Dodecanal, 10 μM): 10%
percentage of GFP-silencing relative to siMOCK ([5]; Dodecanal, 15 μM): 20%
percentage of GFP-silencing relative to siMOCK ([5]; Myristoleyl, 5 μM): 14%
percentage of GFP-silencing relative to siMOCK ([5]; Myristoleyl, 10 μM): 28%

Ac-RK*LRRK*LRK*-NH2 (Ac-RK(NHNH2)LRRK(NHNH2)LRK(NHNH2)-NH2; not fully specified; printed as Ac-RK*LRRK*LRK*-NH2; also: K*2,K*6,K*9: native or modified lysine (ε-amide to a linker)) [Peptide 9.3]
mean fluorescence intensity (EGFP mRNA) ([1]; Myristoleyl, 5 μM): 219
mean fluorescence intensity (EGFP mRNA) ([1]; Myristoleyl, 10 μM): −17
mean fluorescence intensity (EGFP mRNA) ([1]; Oleyl, 2.5 μM): 89
mean fluorescence intensity (EGFP mRNA) ([1]; Oleyl, 5 μM): 399
mean fluorescence intensity (EGFP mRNA) ([1]; Oleyl, 10 μM): 139
mean fluorescence intensity (EGFP mRNA) ([1]; Petroselinyl, 2.5 μM): 94
mean fluorescence intensity (EGFP mRNA) ([1]; Petroselinyl, 5 μM): 789
mean fluorescence intensity (EGFP mRNA) ([1]; Petroselinyl, 10 μM): 349
mean fluorescence intensity (EGFP mRNA) ([2]; Myristoleyl, 2.5 μM): 5042
mean fluorescence intensity (EGFP mRNA) ([2]; Myristoleyl, 5 μM): 1233
mean fluorescence intensity (EGFP mRNA) ([2]; Oleyl, 5 μM): 859
mean fluorescence intensity (EGFP mRNA) ([2]; Oleyl, 10 μM): 919
mean fluorescence intensity (EGFP mRNA) ([2]; Palmitoleyl, 5 μM): 948
mean fluorescence intensity (EGFP mRNA) ([2]; Petroselinyl, 5 μM): 858
mean fluorescence intensity (EGFP mRNA) ([3]; Dodecanal, 5 μM): 526
mean fluorescence intensity (EGFP mRNA) ([3]; Myristoleyl, 2.5 μM): 2151
mean fluorescence intensity (EGFP mRNA) ([3]; Oleyl, 2.5 μM): 1067
mean fluorescence intensity (EGFP mRNA) ([3]; Oleyl, 5 μM): 910
mean fluorescence intensity (EGFP mRNA) ([3]; Oleyl, 10 μM): 1044
mean fluorescence intensity (EGFP mRNA) ([3]; Petroselinyl, 5 μM): 919
mean fluorescence intensity (EGFP mRNA) ([3]; Petroselinyl, 10 μM): 1252
mean fluorescence intensity (EGFP mRNA) ([4]; Oleyl, 2.5 μM): 1416
mean fluorescence intensity (EGFP mRNA) ([4]; Oleyl, 5 μM): 2885
mean fluorescence intensity (EGFP mRNA) ([4]; Oleyl, 10 μM): 466
mean fluorescence intensity (EGFP mRNA) ([4]; Palmitoleyl, 5 μM): 1665
mean fluorescence intensity (EGFP mRNA) ([4]; Palmitoleyl, 10 μM): 1394
mean fluorescence intensity (EGFP mRNA) ([4]; Petroselinyl, 2.5 μM): 1364
mean fluorescence intensity (EGFP mRNA) ([4]; Petroselinyl, 5 μM): 4636
mean fluorescence intensity (EGFP mRNA) ([4]; Petroselinyl, 10 μM): 643
percentage of GFP-silencing relative to siMOCK ([5]; Dodecanal, 5 μM): 57%
percentage of GFP-silencing relative to siMOCK ([5]; Dodecanal, 10 μM): 57%
percentage of GFP-silencing relative to siMOCK ([5]; Dodecanal, 15 μM): 34%
percentage of GFP-silencing relative to siMOCK ([5]; Myristoleyl, 5 μM): 47%
percentage of GFP-silencing relative to siMOCK ([5]; Oleyl, 5 μM): 20%
percentage of GFP-silencing relative to siMOCK ([5]; Oleyl, 10 μM): 55%
percentage of GFP-silencing relative to siMOCK ([5]; Oleyl, 15 μM): 51%
percentage of GFP-silencing relative to siMOCK ([5]; Palmitoleyl, 5 μM): 51%
percentage of GFP-silencing relative to siMOCK ([5]; Palmitoleyl, 10 μM): 30%
percentage of GFP-silencing relative to siMOCK ([5]; Palmitoleyl, 15 μM): 11%
percentage of GFP-silencing relative to siMOCK ([5]; Petroselinyl, 5 μM): 18%
percentage of GFP-silencing relative to siMOCK ([5]; Petroselinyl, 10 μM): 49%
percentage of GFP-silencing relative to siMOCK ([5]; Petroselinyl, 15 μM): 52%
